Legend:
[1] = Observation after in vivo administration of ^18F-LW223
[2] = Radiometabolite and arterial blood analysis; assay type: in vivo, rats; conditions: rat; 120 minutes post-injection
Protocol: In a separate set of experiments (radiometabolite studies), the femoral artery was cannulated for blood sampling and the radiotracer was administered i.v. via tail vein. Surgical cannulation of femoral vein and artery was performed as follows: polyethylene catheters (PE50) filled with heparinized saline (20 IU/mL) were inserted into the left femoral artery or vein with the help of a stereomicroscope and securely fastened with ligatures (6-0 silk thread). Catheters were held in place with surgical glue. Body temperature was maintained by heated scanner bed or heated mat and monitored by rectal thermometer. Vital signs, including heart rate and respiration rate were monitored continuously during the experiments.
Arterial blood samples were collected at 2, 5, 10, 20, 30, 60 and 120 minutes post-radiotracer administration (69.8±9.2 MBq, n=17 rats). […] Following blood collection, all samples were kept on ice until analyzed. Radioactivity in whole blood and plasma was assessed using a well-type γ-counter using a 400-1400 keV window (Perkin Elmer Wizzard2, USA). Plasma samples (400 μL) were processed by acetonitrile denaturation and analyzed by HPLC (Ultimate2000, ThermoFisher, UK) on a Luna C18(2) column (Luna C18(2), 10×250 mm, 10 μm, Phenomenex, UK) with a mobile phase of acetonitrile/water 70/30 at a flow rate of 4 mL/min to estimate the parent fraction. […]

negative effects following administration in vivo [1]: no negative effects were apparent
parent in arterial blood [2]: approximately 70%
SMILES: CC[C@@H](C)N(C)C(=O)c1nc2ccccc2c(-c2ccccc2)c1C[18F] [^18F-LW223, (R)-(N-sec-Butyl)-3-[19-fluoro]-methyl-N-methyl-4-phenylquinoline-2-carboxamide]

Source: patent US12129235B2, “TSPO binders” (The University Court of the University of Glasgow, priority 2018, dated 2024)
